Data on 14 compounds can be found in patent publication US8217048B2, “Inhibitors of serine proteases, particularly HCV NS3-NS4A protease” (Vertex Pharmaceuticals Incorporated, priority 2003, dated 2012).

Structures are written as SMILES. Some results are limits rather than exact numbers.

For one test, the target named is T1, HCV NS3-NS4A protease (Hepatitis C virus genotype 1a, UniProt P27958).
T1 construct: The buffer, KK4A, DTT, and tNS3 were combined
Briefly: HCV Ki Assay (enzyme, Example 5). The settings on record: Ki values, tested according to Example 5 (enzyme); 5AB substrate, tNS3 with KK4A. Format: biochemical. Here is the method: HPLC Microbore Method for Separation of 5AB Substrate and Products
NH2-Glu-Asp-Val-Val-(alpha)Abu-Cys-Ser-Met-Ser-Tyr-COOH
A stock solution of 20 mM 5AB (or concentration of your choice) was made in DMSO w/0.2M DTT. This was stored in aliquots at −20 C.
Buffer: 50 mM HEPES, pH 7.8; 20% glycerol; 100 mM NaCl
Total assay volume was 100 μL
The buffer, KK4A, DTT, and tNS3 were combined; distributed 78 μL each into wells of 96 well plate. This was incubated at 30 C for ˜5-10 min.
2.5 μL of appropriate concentration of test compound was dissolved in DMSO (DMSO only for control) and added to each well. This was incubated at room temperature for 15 min.
Initiated reaction by addition of 20 μL of 250 μM 5AB substrate (25 μM concentration is equivalent or slightly lower than the Km for 5AB).
Incubated for 20 min at 30 C.
Terminated reaction by addition of 25 μL of 10% TFA
Transferred 120 μL aliquots to HPLC vials
Separated SMSY product from substrate and KK4A by the following method:
Microbore Separation Method:
Instrumentation: Agilent 1100
Column thermostated chamber G1316A
Diode array detector G1315A
Solvent A=HPLC grade water+0.1% TFA
Solvent B=HPLC grade acetonitrile+0.1% TFA
Stop time: 17 min Post-run time: 10 min.

Test [1] deals with Cells containing hepatitis C virus (HCV) replicon. As to the kind of experiment: HCV Replicon Cell Assay (Example 4). Format: cell-based. Conditions: 48 h, tested according to Example 4 (cell), 50% inhibition of HCV RNA level, 48-hour incubation. Here is the method:
HCV Replicon Cell Assay Protocol
Cells containing hepatitis C virus (HCV) replicon were maintained in DMEM containing 10% fetal bovine serum (FBS), 0.25 mg per ml of G418, with appropriate supplements (media A).
On day 1, replicon cell monolayer was treated with a trypsin:EDTA mixture, removed, and then media A was diluted into a final concentration of 100,000 cells per ml wit. 10,000 cells in 100 ul were plated into each well of a 96-well tissue culture plate, and cultured overnight in a tissue culture incubator at 37° C.
On day 2, compounds (in 100% DMSO) were serially diluted into DMEM containing 2% FBS, 0.5% DMSO, with appropriate supplements (media B). The final concentration of DMSO was maintained at 0.5% throughout the dilution series.
Media on the replicon cell monolayer was removed, and then media B containing various concentrations of compounds was added. Media B without any compound was added to other wells as no compound controls.
Cells were incubated with compound or 0.5% DMSO in media B for 48 hours in a tissue culture incubator at 37° C. At the end of the 48-hour incubation, the media was removed, and the replicon cell monolayer was washed once with PBS and stored at −80° C. prior to RNA extraction.
Culture plates with treated replicon cell monolayers were thawed, and a fixed amount of another RNA virus, such as Bovine Viral Diarrhea Virus (BVDV) was added to cells in each well, RNA extraction reagents (such as reagents from RNeasy kits) were added to the cells immediately to avoid degradation of RNA. Total RNA was extracted according the instruction of manufacturer with modification to improve extraction efficiency and consistency. Finally, total cellular RNA, including HCV replicon RNA, was eluted and stored at −80° C. until further processing.
A Taqman real-time RT-PCR quantification assay was set up with two sets of specific primers and probe. One was for HCV and the other was for BVDV. Total RNA extractants from treated HCV replicon cells was added to the PCR reactions for quantification of both HCV and BVDV RNA in the same PCR well. Experimental failure was flagged and rejected based on the level of BVDV RNA in each well. The level of HCV RNA in each well was calculated according to a standard curve run in the same PCR plate. The percentage of inhibition or decrease of HCV RNA level due to compound treatment was calculated using the DMSO or no compound control as 0% of inhibition. The IC50 (concentration at which 50% inhibition of HCV RNA level is observed) was calculated from the titration curve of any given compound.

The Ki is a measure of affinity in units of concentration, obtained from inhibition or displacement. A low value points to tighter binding. By IC50 is commonly meant the concentration at which inhibition is half-maximal.

T1 sequence (P27958 1658-1711): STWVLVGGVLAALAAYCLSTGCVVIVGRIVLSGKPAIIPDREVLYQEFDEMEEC
T1 sequence (P27958 1027-1208): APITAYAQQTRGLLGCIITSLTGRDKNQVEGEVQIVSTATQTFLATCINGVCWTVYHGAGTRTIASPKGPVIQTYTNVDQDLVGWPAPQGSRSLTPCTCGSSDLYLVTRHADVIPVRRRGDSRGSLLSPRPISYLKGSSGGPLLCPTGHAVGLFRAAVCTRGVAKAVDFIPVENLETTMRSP

For `CCC[C@H](NC(=O)[C@@H]1C[C@@H](Oc2ccc(Cl)c(Cl)c2)CN1C(=O)[C@@H](NC(=O)[C@@H](NC(=O)c1cnccn1)C1CCCCC1)C(C)(C)C)C(=O)C(=O)NC1CC1` [Compound 53], on HCV NS3-NS4A protease, the Ki is less than 100 nM. The compound also displayed an IC50 in test [1] of less than 500 nM.
The compound `CCC[C@H](NC(=O)[C@@H]1C[C@@H](Oc2ccc(F)c(F)c2)CN1C(=O)[C@@H](NC(=O)[C@@H](NC(=O)c1cnccn1)C1CCCCC1)C(C)(C)C)C(=O)C(=O)NC1CC1` [Compound 54] registered a Ki at HCV NS3-NS4A protease of less than 100 nM. The compound further had an IC50 in test [1] of less than 500 nM.
The like results for `CCC[C@H](NC(=O)[C@@H]1C[C@@H](Oc2cc(F)cc(F)c2)CN1C(=O)[C@@H](NC(=O)[C@@H](NC(=O)c1cnccn1)C1CCCCC1)C(C)(C)C)C(=O)C(=O)NC1CC1` [Compound 55] were, in that order, 100 to 300 nM and less than 500 nM.
Taken in the same sequence, the figures for `CCC[C@H](NC(=O)[C@@H]1C[C@@H](Oc2ccc(Cl)cc2)CN1C(=O)[C@@H](NC(=O)[C@@H](NC(=O)c1cnccn1)C1CCCCC1)C(C)(C)C)C(=O)C(=O)NC1CC1` [Compound 56] were less than 100 nM and less than 500 nM.
The like results for `CCC[C@H](NC(=O)[C@@H]1C[C@@H](Oc2ccccn2)CN1C(=O)[C@@H](NC(=O)[C@@H](NC(=O)c1cnccn1)C1CCCCC1)C(C)(C)C)C(=O)C(=O)NC1CC1` [Compound 58] were, in that order, less than 100 nM and less than 500 nM.
`CCC[C@H](NC(=O)[C@@H]1C[C@@H](Oc2ccc(Cl)cn2)CN1C(=O)[C@@H](NC(=O)[C@@H](NC(=O)c1cnccn1)C1CCCCC1)C(C)(C)C)C(=O)C(=O)NC1CC1` [Compound 59, Pyrazine-2-carboxylic acid ({1-[4-(5-chloro-pyridin-2-yloxy)-2-(1-cyclopropylaminooxalyl-butylcarbamoyl)-pyrrolidine-1-carbonyl]-2,2-dimethyl-propylcarbamoyl}-cyclohexyl-methyl)-amide] displayed a Ki on HCV NS3-NS4A protease of less than 100 nM. In test [1], the IC50 is less than 500 nM.
The like results for `CCC[C@H](NC(=O)[C@@H]1C[C@@H](Oc2nc(C(F)(F)F)nc3ccccc23)CN1C(=O)[C@@H](NC(=O)[C@@H](NC(=O)c1cnccn1)C1CCCCC1)C(C)(C)C)C(=O)C(=O)NC1CC1` [Compound 60] were, in that order, 100 to 300 nM and greater than 1000 nM.
Taken in the same sequence, the figures for `CCC[C@H](NC(=O)[C@@H]1C[C@@H](Oc2ccc(C(=O)OC(C)C)cc2)CN1C(=O)[C@@H](NC(=O)[C@@H](NC(=O)c1cnccn1)C1CCCCC1)C(C)(C)C)C(=O)C(=O)NC1CC1` [Compound 61] were less than 100 nM and less than 500 nM.
The like results for `CCC[C@H](NC(=O)[C@@H]1C[C@@H](Oc2ccc(OC)cc2Cl)CN1C(=O)[C@@H](NC(=O)[C@@H](NC(=O)c1cnccn1)C1CCCCC1)C(C)(C)C)C(=O)C(=O)NC1CC1` [Compound 64] were, in that order, less than 100 nM and less than 500 nM.
At HCV NS3-NS4A protease, `CCC[C@H](NC(=O)[C@@H]1C[C@@H](Oc2ccc(CC#N)cc2)CN1C(=O)[C@@H](NC(=O)[C@@H](NC(=O)c1cnccn1)C1CCCCC1)C(C)(C)C)C(=O)C(=O)NC1CC1` [Compound 65] displayed a Ki of 100 to 300 nM. The compound further registered an IC50 in test [1] of less than 500 nM.
The like results for `CCC[C@H](NC(=O)[C@@H]1C[C@@H](Oc2cccc(Cl)c2)CN1C(=O)[C@@H](NC(=O)[C@@H](NC(=O)c1cnccn1)C1CCCCC1)C(C)(C)C)C(=O)C(=O)NC1CC1` [Compound 66] were, in that order, 100 to 300 nM and less than 500 nM.
`CCC[C@H](NC(=O)[C@@H]1C[C@@H](Oc2ccnc3cc(C(F)(F)F)ccc23)CN1C(=O)[C@@H](NC(=O)[C@@H](NC(=O)c1cnccn1)C1CCCCC1)C(C)(C)C)C(=O)C(=O)NC1CC1` [Compound 67] displayed a Ki on HCV NS3-NS4A protease of less than 100 nM. In addition, the IC50 in test [1] is less than 500 nM.
`CCC[C@H](NC(=O)[C@@H]1C[C@@H](Oc2ccc(C(=O)N3CCN(C(=O)OCc4ccccc4)CC3)cc2)CN1C(=O)[C@@H](NC(=O)[C@@H](NC(=O)c1cnccn1)C1CCCCC1)C(C)(C)C)C(=O)C(=O)NC1CC1` [Compound 70]: the Ki on HCV NS3-NS4A protease was 100 to 300 nM. In addition, in test [1], the IC50 lay within 500 to 1000 nM.
`CCC[C@H](NC(=O)[C@@H]1C[C@@H](Oc2ccc(C(=O)N3CCNCC3)cc2)CN1C(=O)[C@@H](NC(=O)[C@@H](NC(=O)c1cnccn1)C1CCCCC1)C(C)(C)C)C(=O)C(=O)NC1CC1` [Compound 71] yielded an inhibitory constant (Ki) on HCV NS3-NS4A protease of 100 to 300 nM. Further, the IC50 in test [1] was greater than 1000 nM.
